Laboratory results published in article PMC9270327 (Communications Biology, 2022).
Like-named read-outs stand apart in the source and are kept apart here.

How the values were obtained:
[1] = molecular target: T1, recombinant human matriptase (Homo sapiens, UniProt Q9Y5Y6); assay: Enzyme inhibition assay with purified matriptase (Ki, dose-response); type: biochemical; conditions: for matriptase activity, Mean (Fig. 2b): normalized, 0 nM = 100
T1 construct: purchased R&D Systems (Minneapolis, MN, USA)
T1 sequence (Q9Y5Y6 1-855): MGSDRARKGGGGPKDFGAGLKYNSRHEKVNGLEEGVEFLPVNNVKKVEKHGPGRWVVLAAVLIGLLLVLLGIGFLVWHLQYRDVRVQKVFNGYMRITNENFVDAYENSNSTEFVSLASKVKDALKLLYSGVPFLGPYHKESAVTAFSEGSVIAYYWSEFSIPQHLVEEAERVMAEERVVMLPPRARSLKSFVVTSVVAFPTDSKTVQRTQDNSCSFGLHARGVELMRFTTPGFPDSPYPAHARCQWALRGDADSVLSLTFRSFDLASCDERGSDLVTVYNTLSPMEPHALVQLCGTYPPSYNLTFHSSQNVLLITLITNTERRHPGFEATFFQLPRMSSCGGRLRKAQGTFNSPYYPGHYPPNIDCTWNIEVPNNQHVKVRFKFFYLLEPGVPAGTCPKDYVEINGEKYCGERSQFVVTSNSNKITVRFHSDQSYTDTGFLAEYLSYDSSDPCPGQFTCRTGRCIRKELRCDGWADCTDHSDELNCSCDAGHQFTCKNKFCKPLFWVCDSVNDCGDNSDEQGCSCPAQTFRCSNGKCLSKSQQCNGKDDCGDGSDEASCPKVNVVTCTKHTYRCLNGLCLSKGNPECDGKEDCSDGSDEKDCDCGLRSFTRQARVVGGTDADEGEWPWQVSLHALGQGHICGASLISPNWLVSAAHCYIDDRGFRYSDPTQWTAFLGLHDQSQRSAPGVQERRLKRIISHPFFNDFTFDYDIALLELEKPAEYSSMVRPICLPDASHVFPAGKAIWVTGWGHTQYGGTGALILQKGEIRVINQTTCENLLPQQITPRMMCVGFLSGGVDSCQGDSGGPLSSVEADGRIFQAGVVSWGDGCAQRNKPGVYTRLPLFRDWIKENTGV

factor Xa = molecular target: T2, factor Xa (Homo sapiens, UniProt P00742); assay: Enzyme inhibition assay with purified factor Xa (Ki, dose-response); type: biochemical; conditions: for factor Xa activity, Mean (Fig. 2d): normalized, 0 nM = 100
T2 construct: purchased Bio-Techne GmbH (Wiesbaden, Germany)
T2 sequence (P00742 235-488 limits assumed): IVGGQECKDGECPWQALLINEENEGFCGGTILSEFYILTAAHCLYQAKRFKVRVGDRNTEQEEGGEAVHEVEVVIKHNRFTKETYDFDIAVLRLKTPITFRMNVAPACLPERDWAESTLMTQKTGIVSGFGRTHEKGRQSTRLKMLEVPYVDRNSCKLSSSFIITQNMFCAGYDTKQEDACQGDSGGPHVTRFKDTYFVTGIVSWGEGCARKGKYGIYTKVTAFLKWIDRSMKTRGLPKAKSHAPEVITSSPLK
T2 sequence (P00742 41-179 partner limits assumed): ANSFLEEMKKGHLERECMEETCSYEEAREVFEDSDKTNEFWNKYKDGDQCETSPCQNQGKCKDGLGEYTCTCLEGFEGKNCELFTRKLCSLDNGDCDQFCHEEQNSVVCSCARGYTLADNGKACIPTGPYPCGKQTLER
From the text: (§1) Recombinant human TMPRSS2 was purchased from Creative BioMart (New York, USA) or LSBio (Seattle, USA), factor Xa was obtained from Bio-Techne GmbH (Wiesbaden, Germany). Recombinant human thrombin and matriptase protein were purchased from R&D Systems (Minneapolis, MN, USA).

[2] = molecular target: T3, TMPRSS2 expressed in HEK293T cells (Homo sapiens, UniProt O15393); assay: Inhibition of cellular TMPRSS2 activity on HEK293T cells transiently expressing TMPRSS2; type: cell-based; conditions: 2 h; for normalized fluorescence intensity, HEK293T TMPRSS2, Mean (Fig. 4b): corrected for mock-transfected cells
T3 construct: host or cells: HEK293T (ATCC)
T3 sequence (O15393 whole entry): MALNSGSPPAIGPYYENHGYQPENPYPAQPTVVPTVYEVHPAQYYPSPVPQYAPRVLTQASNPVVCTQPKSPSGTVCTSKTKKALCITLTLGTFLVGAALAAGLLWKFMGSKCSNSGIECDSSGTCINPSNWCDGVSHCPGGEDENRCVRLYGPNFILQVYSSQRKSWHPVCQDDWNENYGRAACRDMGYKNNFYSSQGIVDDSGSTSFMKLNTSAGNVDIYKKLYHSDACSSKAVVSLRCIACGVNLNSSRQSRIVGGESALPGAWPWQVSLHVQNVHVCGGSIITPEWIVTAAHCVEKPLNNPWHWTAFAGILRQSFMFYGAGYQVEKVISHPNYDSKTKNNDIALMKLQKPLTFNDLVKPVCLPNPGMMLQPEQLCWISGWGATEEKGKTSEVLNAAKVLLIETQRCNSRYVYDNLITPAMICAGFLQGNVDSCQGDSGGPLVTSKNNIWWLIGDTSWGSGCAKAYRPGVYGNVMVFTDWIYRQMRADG
Description: In total, 10,000 Caco-2 cells (ATCC) in 100 µL EMEM medium supplemented with 10% FBS, 100 U/mL penicillin, […] streptomycin, and 2 mM glutamine (all Invitrogen, Germany) were seeded per well in a 96-well plate and incubated at 37 °C for 4 days until full confluency of the cells. The cells were washed two times with PBS and EMEM medium without FBS was added. […] The fluorescence intensity was measured as described above. In all, 20,000 HEK293T cells (ATCC) were seeded in 100 µL DMEM supplemented with 10% FBS, 100 U/mL penicillin, […] streptomycin, and 2 mM glutamine. […] […] […] Fluorescence intensity was measured after 2 h at 37 °C as described above.

[3] = molecular target: cellular TMPRSS2 activity, Caco-2 cells (Homo sapiens, UniProt O15393); conditions: for cellular protease activity on Caco-2 cells, Mean (Fig. 4a): normalized, 0 nM = 100
Sequence of cellular TMPRSS2 activity, Caco-2 cells (O15393 whole entry): as above
Description: In total, 10,000 Caco-2 cells (ATCC) in 100 µL EMEM medium supplemented with 10% FBS, 100 U/mL penicillin, […] streptomycin, and 2 mM glutamine (all Invitrogen, Germany) were seeded per well in a 96-well plate and incubated at 37 °C for 4 days until full confluency of the cells. The cells were washed two times with PBS and EMEM medium without FBS was added. […] The fluorescence intensity was measured as described above. In all, 20,000 HEK293T cells (ATCC) were seeded in 100 µL DMEM supplemented with 10% FBS, 100 U/mL penicillin, […] streptomycin, and 2 mM glutamine. […] After 14 h, transfection mix was removed from the cells and 80 µL fresh medium without FBS and 10 µL inhibitors were added (final concentration 50 µM). […] Fluorescence intensity was measured after 2 h at 37 °C as described above.

[4] = system: SARS-CoV-2 Beta (B.1.351), Caco-2 cells; type: cell-based; conditions: for SARS-CoV-2 infection, Mean (0 nM = 100): Fig. 6d, VOC Beta
[5] = molecular target: T4, recombinant human thrombin (Homo sapiens, UniProt P00734); assay: Enzyme inhibition assay with purified thrombin (Ki, dose-response); type: biochemical; conditions: for thrombin activity, Mean (Fig. 2c): normalized, 0 nM = 100
T4 construct: purchased R&D Systems (Minneapolis, MN, USA)
From the text: as §1

ace-Arg-Pro-Arg-kbt [Compound 2]
matriptase activity, Mean (Fig. 2b) ([1]; 0.1 nM): 101.198 | matriptase activity, Mean (Fig. 2b) ([1]; 0.2 nM): 106.445 | matriptase activity, Mean (Fig. 2b) ([1]; 1 nM): 70.3881 | matriptase activity, Mean (Fig. 2b) ([1]; 10 nM): 45.9032 | matriptase activity, Mean (Fig. 2b) ([1]; 100 nM): 8.529 | matriptase activity, Mean (Fig. 2b) ([1]; 1000 nM): 0.7667 | matriptase activity, Mean (Fig. 2b) ([1]; 50000 nM): -0.2875 | matriptase activity, Mean (Fig. 2b) ([1]; 500000 nM): -0.6229 | Ki ([1]; 30 min preincubation, substrate Boc-Gln-Ala-Arg-AMC): 3.3 nM | Selectivity index Matriptase ([1]; quotient Ki matriptase / Ki TMPRSS2): 0.9 | factor Xa activity, Mean (Fig. 2d) (factor Xa; 0.02 nM): 109.27 | factor Xa activity, Mean (Fig. 2d) (factor Xa; 0.04 nM): 100.653 | factor Xa activity, Mean (Fig. 2d) (factor Xa; 0.2 nM): 101.827 | factor Xa activity, Mean (Fig. 2d) (factor Xa; 2 nM): 97.7797 | factor Xa activity, Mean (Fig. 2d) (factor Xa; 20 nM): 88.6416 | factor Xa activity, Mean (Fig. 2d) (factor Xa; 200 nM): 49.7393 | factor Xa activity, Mean (Fig. 2d) (factor Xa; 10000 nM): 7.702 | factor Xa activity, Mean (Fig. 2d) (factor Xa; 100000 nM): 2.742 | Ki (factor Xa; 30 min preincubation, substrate Bz-Ile-Glu-Gly-Arg-pNA): 107 nM | Selectivity index Factor Xa (factor Xa; quotient Ki factor Xa / Ki TMPRSS2): 28.1 | normalized fluorescence intensity, HEK293T TMPRSS2, Mean (Fig. 4b) ([2]; 0.5 nM): 60.175 | normalized fluorescence intensity, HEK293T TMPRSS2, Mean (Fig. 4b) ([2]; 5 nM): 47.265 | normalized fluorescence intensity, HEK293T TMPRSS2, Mean (Fig. 4b) ([2]; 50 nM): 34.28 | normalized fluorescence intensity, HEK293T TMPRSS2, Mean (Fig. 4b) ([2]; 500 nM): 7.97 | normalized fluorescence intensity, HEK293T TMPRSS2, Mean (Fig. 4b) ([2]; 5000 nM): 0.76 | normalized fluorescence intensity, HEK293T TMPRSS2, Mean (Fig. 4b) ([2]; 50000 nM): -5.7 | IC50 ([2]; corrected for mock-transfected HEK293T cells): 3.5 nM | cellular protease activity on Caco-2 cells, Mean (Fig. 4a) ([3]; 0.1 nM): 109.802 | cellular protease activity on Caco-2 cells, Mean (Fig. 4a) ([3]; 1 nM): 82.1942 | cellular protease activity on Caco-2 cells, Mean (Fig. 4a) ([3]; 10 nM): 70.6835 | cellular protease activity on Caco-2 cells, Mean (Fig. 4a) ([3]; 100 nM): 32.9137 | cellular protease activity on Caco-2 cells, Mean (Fig. 4a) ([3]; 1000 nM): -3.058 | cellular protease activity on Caco-2 cells, Mean (Fig. 4a) ([3]; 10000 nM): 1.349 | cellular protease activity on Caco-2 cells, Mean (Fig. 4a) ([3]; 100000 nM): 2.158 | IC50 ([3]; read-out: IC50 Caco2, cell-mediated proteolysis of Boc-Gln-Ala-Arg-AMC, 30 min preincubation): 32 nM | SARS-CoV-2 infection, Mean (0 nM = 100) ([4]; compound 32 nM): 90.9628 | SARS-CoV-2 infection, Mean (0 nM = 100) ([4]; compound 160 nM): 88.9778 | SARS-CoV-2 infection, Mean (0 nM = 100) ([4]; compound 800 nM): 79.0008 | SARS-CoV-2 infection, Mean (0 nM = 100) ([4]; compound 4000 nM): 83.4908 | SARS-CoV-2 infection, Mean (0 nM = 100) ([4]; compound 20000 nM): 3.338 | SARS-CoV-2 infection, Mean (0 nM = 100) ([4]; compound 100000 nM): -2.162 | IC50 ([4]; read-out: IC50 SARS-CoV-2 Beta): 6880 nM | thrombin activity, Mean (Fig. 2c) ([5]; 0.02 nM): 98.5684 | thrombin activity, Mean (Fig. 2c) ([5]; 0.04 nM): 95.6033 | thrombin activity, Mean (Fig. 2c) ([5]; 0.2 nM): 102.761 | thrombin activity, Mean (Fig. 2c) ([5]; 2 nM): 99.4379 | thrombin activity, Mean (Fig. 2c) ([5]; 20 nM): 100.358 | thrombin activity, Mean (Fig. 2c) ([5]; 200 nM): 86.605 | thrombin activity, Mean (Fig. 2c) ([5]; 10000 nM): 11.4518 | thrombin activity, Mean (Fig. 2c) ([5]; 100000 nM): -13.8043 | Ki ([5]; 30 min preincubation, substrate D-Phe-Homopro-Arg-pNA): 599 nM | Selectivity index Thrombin ([5]; quotient Ki thrombin / Ki TMPRSS2): 158
